Columns and labels:
Assay type in all cases: in vivo
[1] = test system: Akt1; test: Microarray gene expression in heart tissue, Study 2; conditions: Study 2, mouse heart tissue, old (30) + Resveratrol vs old; probe 1425711_a_at
Source text: (§1) Two public rodent cardiac aging gene expression data sets were selected from the NCBI's Gene Expression Omnibus (GEO): (1) The University of Washington's rat study (UW) (Linford J L et al. (2007) Transcriptional Response to Aging and Calorie Restriction in Heart and Adipose Tissue. Aging Cell 6: 673-688)) (Study 1); and (2) LifeGen's mouse study (Barger J L et al. (2008) A Low Dose of Dietary Resveratrol partially Mimics Calorie Restriction and Retards Aging Parameters in Mice. PLoS ONE 3(6): 1-10) (Study 2). Materials and methods for the two studies are shown in the references. A third data set came from an unpublished mouse cardiac aging study. In that study, mice were divided into two groups (n=7) and were fed with control diet according to the proceedings in the Barger study. Mice were sacrificed at the ages of 5 months (young group) and 25 months (old group). Heart tissues were collected and subject to microarray gene expression assays (Study 3). In Study 2 and Study 3, Affymetrix mouse genome 430 2.0 gene chips were used. In Study 1, Affymetrix rat genome 230 2.0 gene chips were used. A description of the three studies is outlined in Table 1.
(§2) Data were first inspected for quality and examined for possible outliers. Three samples, one from each Study, were identified as outliers and were removed from further analysis. Differential genes were identified between young and old groups in each Study using Significance Analysis of Microarrays (SAM) algorithm (Tusher, Tibshirani and Chu (2001) Significance analysis of microarrays applied to the ionizing radiation response. PNAS 2001 98: 5116-5121). The selection criteria include magnitude of expression change (fold>=1.2) and false discovery rate (FDR<0.5%).
(§3) Genes in the Wnt pathway were further examined for their expressional changes. […] Those genes/proteins are listed in Table 2, along with respective representative GenBank Accession Numbers, and the Study 2 results are shown in Table 3. The expression of these genes was also examined in the calorie restricted (CR) group and resveratrol (“Resv”) group.

[2] = test system: Camk2d; test: as above; conditions: Study 2, mouse heart tissue, old (30) + Resveratrol vs old; probe 1427763_a_at
Source text: as §1, §2, §3

[3] = test system: Ccnd1; test: as above; conditions: Study 2, mouse heart tissue, old (30) + Resveratrol vs old; probe 1448698_at
Source text: as §1, §2, §3

[4] = test system: Dab2; test: as above; conditions: Study 2, mouse heart tissue, old (30) + Resveratrol vs old; probe 1430604_a_at
Source text: as §1, §2, §3

[5] = test system: Dlgh1; test: as above; conditions: Study 2, mouse heart tissue, old (30) + Resveratrol vs old; probe 1450768_at
Source text: as §1, §2, §3

[6] = test system: Magi3; test: as above; conditions: Study 2, mouse heart tissue, old (30) + Resveratrol vs old; probe 1421035_a_at
Source text: as §1, §2, §3

[7] = test system: Mapk1; test: as above; conditions: Study 2, mouse heart tissue, old (30) + Resveratrol vs old; probe 1426585_s_at
Source text: as §1, §2, §3

[8] = test system: Mark2; test: as above; conditions: Study 2, mouse heart tissue, old (30) + Resveratrol vs old; probe 1435889_at
Source text: as §1, §2, §3

[9] = test system: Pias4; test: as above; conditions: Study 2, mouse heart tissue, old (30) + Resveratrol vs old; probe 1455394_at
Source text: as §1, §2, §3

[10] = test system: Rac1; test: as above; conditions: Study 2, mouse heart tissue, old (30) + Resveratrol vs old; probe 1423734_at
Source text: as §1, §2, §3

[11] = test system: Senp2; test: as above; conditions: Study 2, mouse heart tissue, old (30) + Resveratrol vs old; probe 1425465_a_at
Source text: as §1, §2, §3

[12] = test system: Smad3; test: as above; conditions: Study 2, mouse heart tissue, old (30) + Resveratrol vs old; probe 1450471_at
Source text: as §1, §2, §3

[13] = test system: Ctnnb1 (beta-catenin); test: as above; conditions: Study 2, mouse heart tissue, old (30) + Resveratrol vs old; for Fold Change Resv vs. Old, Ctnnb1(1): Ctnnb1 probe 1
Source text: as §1, §2
Genes in the Wnt pathway were further examined for their expressional changes. […] Those genes/proteins are listed in Table 2, along with respective representative GenBank Accession Numbers, and the Study 2 results are shown in Table 3. The expression of these genes was also examined in the calorie restricted (CR) group and resveratrol (“Resv”) group. […]

[14] = test system: Wnt pathway genes; test: Wnt pathway gene expression in aged heart, Study 2; conditions: Study 2, mouse aged heart; all but three of the genes of Table 2/3
Source text: as §1, with “Mice were sacrificed at the ages of 5 months (young group) and 25 months (old group). Heart tissues were collected and subject to microarray gene expression assays (Study 3). In Study 2 and Study 3, Affymetrix mouse genome 430 2.0 gene chips were used. In Study 1, Affymetrix rat genome 230 2.0 gene chips were used. A description of the three studies is outlined in Table 1.” left out
To determine the impact of gene expression changes in the systems level, pathway analysis was conducted on the data sets from Study 2 and Study 3 using GenMAPP and MAPPFinder software (Salomonis, K Hanspers, A C Zambon, K Vranizan, S C Lawlor, K D Dahlquist, S W Doniger, J Stuart, B R Conklin, and A R Pico. GenMAPP 2: new features and resources for pathway analysis. BMC Bioinformatics, June 2007; 8: 217). […] The inventors determined that the Wnt signaling pathway was among those with most significant associations (adjusted p value of 0.011 in both the Study 2 and Study 3 data sets). […]

Structure (SMILES): Oc1ccc(C=Cc2cc(O)cc(O)c2)cc1 [Resv, resveratrol]
- Fold Change Resv vs. Old, Akt1 [1]: −1.315 fold
- Fold Change Resv vs. Old, Camk2d [2]: 1.235 fold
- Fold Change Resv vs. Old, Ccnd1 [3]: −1.158 fold
- Fold Change Resv vs. Old, Dab2 [4]: 1.227 fold
- Fold Change Resv vs. Old, Dlgh1 [5]: 1.150 fold
- Fold Change Resv vs. Old, Magi3 [6]: 1.244 fold
- Fold Change Resv vs. Old, Mapk1 [7]: −1.020 fold
- Fold Change Resv vs. Old, Mark2 [8]: −2.113 fold
- Fold Change Resv vs. Old, Pias4 [9]: −1.495 fold
- Fold Change Resv vs. Old, Rac1 [10]: 1.509 fold
- Fold Change Resv vs. Old, Senp2 [11]: 1.261 fold
- Fold Change Resv vs. Old, Smad3 [12]: 1.285 fold
- Fold Change Resv vs. Old, Ctnnb1(1) [13]: 2.787 fold
- Fold Change Resv vs. Old, Ctnnb1(1) ([13]; listed as Resveratrol): 2.79 fold
- Fold Change Resv vs. Old, Ctnnb1(2) ([13]; Ctnnb1 probe 2): 2.017 fold
- Expression of Wnt pathway genes decreased in aged heart, after treatment [14]: elevated to their young levels

Source: US20120220488A1, “HEART AGING BIOMARKERS AND METHODS OF USE” (priority 2009, published 2012)
